# Earlier results, collected in US20240165069A1, “METHODS FOR TREATING DYSGEUSIA AND OTHER LINGERING SYMPTOMS ASSOCIATED WITH SEVERE ACUTE RESPIRATORY SYNDROME CORONAVIRUS 2 INFECTIONADN CORONAVIRUS DISEASE 2019” (Nocendra, Inc., priority 2021, published 2024).
# System: oral inflammation
# Conditions: Phase 1 trial
smiles,measurement,setting,value
"CCCCC[C@@H](O)/C=C/c1ccccc1/C=C/[C@@H](O)[C@@H](O)CCCC(=O)O [BLXA4, 9,12-benzo-lipoxin A4]",safety profile,"50 subjects receiving drug, oral topical mouth rinse, versus placebo mouth rinse",indistinguishable from placebo mouth rinse in safety profile
same,efficacy (reversal of inflammation),"oral topical mouth rinse, not powered for efficacy, trends only",trends in the efficacy data suggested reversal of inflammation
same,pro-resolving lipid mediator shift in serum,"topical BLXA4, serum of the subjects",elicited a pro-resolving lipid mediator shift in the serum
